Source: the supplement of paper PMC11061612

Assays:
Assay in all cases: combination Emax (second highest fraction inhibited in the dose matrix, 72 h); higher = more inhibition; extreme values may be limits of the assay
[1] = tested on: CAPAN-1 (Pancreatic Carcinoma)
In short: (§1)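 Cell lines grown in DMEM/F12 or RPMI with 10% FBS were plated in 1536-well plates and held 24 hours at 37°C, 5% CO2 before 72 hours of exposure to two-drug dose matrices, with DMSO typically at 0.2%. CellTiter-Glo 2.0 luminescence gave viability, which was converted to inhibition. Vehicle wells were set to 0 and blank wells to 1. Combination Emax is the second-highest inhibition in the matrix, and Bliss excess is the observed combination effect minus the expected EA + EB − EA·EB, where EA and EB are the single-agent effects.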

[2] = tested on: EN (Endometrial Carcinoma)
In short: as §1

[3] = tested on: HCC-15 (Squamous Cell Lung Carcinoma)
In short: as §1

[4] = tested on: HDLM-2 (Hodgkin's Lymphoma)
In short: as §1

[5] = tested on: HO-1-u-1 (Oral Cavity Carcinoma)
In short: as §1

[6] = tested on: K5 (Thyroid Gland Carcinoma)
In short: as §1

[7] = tested on: KYSE-410 (Esophageal Squamous Cell Carcinoma)
In short: as §1

[8] = tested on: LB771-HNC (Head and Neck Carcinoma)
In short: as §1

[9] = tested on: MDA-MB-468 (Breast Carcinoma)
In short: as §1

[10] = tested on: MHH-PREB-1 (B-Cell Non-Hodgkin's Lymphoma)
In short: as §1

NB14 (Neuroblastoma) = tested on: NB14 (Neuroblastoma)
In short: as §1

NCI-H2795 (Mesothelioma) = tested on: NCI-H2795 (Mesothelioma)
In short: as §1

[11] = tested on: NCI-H69 (Small Cell Lung Carcinoma)
In short: as §1

[12] = tested on: OVCAR-8 (Ovarian Carcinoma)
In short: as §1

[13] = tested on: RKO (Colorectal Carcinoma)
In short: as §1

SH-4 (Melanoma) = tested on: SH-4 (Melanoma)
In short: as §1

[14] = tested on: SK-OV-3 (Ovarian Carcinoma)
In short: as §1

[15] = tested on: SUP-T1 (T-Lymphoblastic Leukemia)
In short: as §1

[16] = tested on: SW1271 (Small Cell Lung Carcinoma)
In short: as §1

[17] = tested on: SW626 (Colorectal Carcinoma)
In short: as §1

| SMILES | combination Emax [1] | combination Emax [2] | combination Emax [3] | combination Emax [4] | combination Emax [5] | combination Emax [6] | combination Emax [7] | combination Emax [8] | combination Emax [9] | combination Emax [10] | combination Emax (NB14 (Neuroblastoma)) | combination Emax (NCI-H2795 (Mesothelioma)) | combination Emax [11] | combination Emax [12] | combination Emax [13] | combination Emax (SH-4 (Melanoma)) | combination Emax [14] | combination Emax [15] | combination Emax [16] | combination Emax [17] |
| --- | --- | --- | --- | --- | --- | --- | --- | --- | --- | --- | --- | --- | --- | --- | --- | --- | --- | --- | --- | --- |
| CC1(C)CCC(CN2CCN(c3ccc(C(=O)NS(=O)(=O)c4ccc(NCC5CCOCC5)c([N+](=O)[O-])c4)c(Oc4cnc5[nH]ccc5c4)c3)CC2)=C(c2ccc(Cl)cc2)C1 [Venetoclax] + Cn1cnc2c(F)c(Nc3ccc(Br)cc3Cl)c(C(=O)NOCCO)cc21 [Selumetinib] (first compound max 1 µM, 7x7, partner max 3 µM) | 0.314 | 0.373 | 0.438 | 0.296 | 0.286 | 0.742 | 0.222 | 0.132 | 0.315 | 0.147 | 0.974 | 0.562 | 0.302 | 0.153 | 0.441 | 0.872 | 0.137 | 0.426 | 0.432 | 0.507 |
| COc1cccc2c1C(=O)c1c(O)c3c(c(O)c1C2=O)C[C@@](O)(C(=O)CO)C[C@@H]3O[C@H]1C[C@H](N)[C@H](O)[C@H](C)O1 [Doxorubicin] + Cc1cc2ncnn2cc1Nc1ncc2c(n1)n(C1CCOCC1)c(=O)n2C [AZD7648] (first compound max 1 µM, 7x7, partner max 10 µM) | 0.511 | 0.735 | 0.284 | 0.545 | 0.832 | 0.823 | 0.117 | 0.193 | 0.638 | 0.974 | 0.887 | 0.709 | 0.747 | 0.923 | 0.91 | 0.588 | 0.638 | 0.784 | 0.768 | 0.419 |
| CN(CCO)CC[C@H](CSc1ccccc1)Nc1ccc(S(=O)(=O)NC(=O)c2ccc(N3CCC([C@@H](O)c4ccccc4-c4ccc(Cl)cc4)CC3)cc2)cc1S(=O)(=O)C(F)(F)F [AZD4320] + Cc1cc2ncnn2cc1Nc1ncc2c(n1)n(C1CCOCC1)c(=O)n2C [AZD7648] (first compound max 1 µM, 7x7, partner max 10 µM) | 0.161 | 0.304 | 0.936 | 0.895 | 0.325 | 0.392 | 0.134 | 0.138 | 0.747 | 0.119 | 0.966 | 0.43 | 0.882 | 0.14 | 0.21 | 0.16 | 0.305 | 0.416 | 0.216 | 0.577 |
| COc1cccc(OCCCN)c1-c1cc(Nc2cnc(C#N)cn2)n[nH]1 [Prexasertib] + Cc1cc2ncnn2cc1Nc1ncc2c(n1)n(C1CCOCC1)c(=O)n2C [AZD7648] (first compound max 1 µM, 7x7, partner max 10 µM) | 0.585 | 0.756 | 0.333 | 0.583 | 0.993 | 0.704 | 0.504 | 0.596 | 0.533 | 0.947 | 1 | 0.765 | 0.583 | 0.984 | 0.901 | 0.709 | 0.842 | 0.821 | 0.678 | 0.75 |
| C=CCn1c(=O)c2cnc(Nc3ccc(N4CCN(C)CC4)cc3)nc2n1-c1cccc(C(C)(C)O)n1 [AZD1775] + C[C@@H]1COCCN1C2=NC(=NC(=C2)C3(CC3)[S@](=N)(=O)C)C4=C5C=CNC5=NC=C4 [AZD6738] (first compound max 1 µM, partner max 10 µM) | 0.49 | 0.764 | 0.504 | 0.772 | 0.973 | 0.749 | 0.499 | 0.536 | 0.634 | 0.948 | 1 | 0.803 | 0.849 | 0.966 | 0.943 | 0.56 | 0.755 | 0.882 | 0.637 | 0.743 |
| Cc1cc2ncnn2cc1Nc1ncc2c(n1)n(C1CCOCC1)c(=O)n2C [AZD7648] + CCN(CCO)CCCOc1ccc2c(Nc3cc(CC(=O)Nc4cccc(F)c4)[nH]n3)ncnc2c1 [AZD2811] (first compound max 10 µM, 7x7, partner max 1 µM) | 0.299 | 0.519 | 0.703 | 0.345 | 0.449 | 0.571 | 0.187 | 0.251 | 0.492 | 0.343 | 0.837 | 0.45 | 0.743 | 0.311 | 0.409 | 0.345 | 0.367 | 0.641 | 0.376 | 0.25 |
| COc1cccc(OCCCN)c1-c1cc(Nc2cnc(C#N)cn2)n[nH]1 [Prexasertib] + O=C(c1cc(Cc2n[nH]c(=O)c3ccccc23)ccc1F)N1CCN(C(=O)C2CC2)CC1 [Olaparib] (first compound max 1 µM, 7x7, partner max 10 µM) | 0.595 | 0.726 | 0.284 | 0.626 | 0.936 | 0.634 | 0.382 | 0.568 | 0.603 | 0.866 | 0.986 | 0.674 | 0.696 | 0.966 | 0.874 | 0.611 | 0.713 | 0.79 | 0.686 | 0.64 |
| CC1(C)CCC(CN2CCN(c3ccc(C(=O)NS(=O)(=O)c4ccc(NCC5CCOCC5)c([N+](=O)[O-])c4)c(Oc4cnc5[nH]ccc5c4)c3)CC2)=C(c2ccc(Cl)cc2)C1 [Venetoclax] + COc1cc(Nc2ncc3c(n2)-c2ccc(Cl)cc2C(c2c(F)cccc2OC)=NC3)ccc1C(=O)O [Alisertib] (first compound max 1 µM, 7x7, partner max 10 µM) | 0.28 | 0.463 | 0.86 | 0.643 | 0.611 | 0.841 | 0.361 | 0.697 | 0.748 | 0.199 | 0.993 | 0.936 | 0.837 | 0.487 | 0.487 | 0.146 | 0.315 | 0.611 | 0.326 | 0.314 |
| CC(=O)c1c(C)c2cnc(Nc3ccc(N4CCNCC4)cn3)nc2n(C2CCCC2)c1=O [Palbociclib] + CC1(C)CCC(CN2CCN(c3ccc(C(=O)NS(=O)(=O)c4ccc(NCC5CCOCC5)c([N+](=O)[O-])c4)c(Oc4cnc5[nH]ccc5c4)c3)CC2)=C(c2ccc(Cl)cc2)C1 [Venetoclax] (first compound max 10 µM, 7x7, partner max 1 µM) | 0.21 | 0.146 | 0.177 | 0.731 | 0.271 | 0.452 | 0.136 | 0.149 | 0.261 | 0.412 | 0.734 | 0.351 | 0.764 | 0.19 | 0.315 | 0.271 | 0.144 | 0.618 | 0.214 | 0.153 |
| Cc1c2c(nn1C)CSCc1cc(n(C)n1)CSc1cc(c3ccccc3c1)OCCCc1c(C(=O)O)n(C)c3c-2c(Cl)ccc13 [AZD5991] + C[C@@H]1COCCN1C2=NC(=NC(=C2)C3(CC3)[S@](=N)(=O)C)C4=C5C=CNC5=NC=C4 [AZD6738] (first compound max 1 µM, 7x7, partner max 10 µM) | 0.488 | 0.853 | 0.297 | 0.992 | 0.844 | 0.574 | 0.403 | 0.806 | 0.768 | 0.729 | 0.989 | 0.939 | 0.335 | 0.783 | 0.85 | 0.422 | 0.556 | 0.741 | 0.604 | 0.632 |
| CC(=O)c1c(C)c2cnc(Nc3ccc(N4CCNCC4)cn3)nc2n(C2CCCC2)c1=O [Palbociclib] + Cn1cnc2c(F)c(Nc3ccc(Br)cc3Cl)c(C(=O)NOCCO)cc21 [Selumetinib] (first compound max 10 µM, 7x7, partner max 10 µM) | 0.382 | 0.184 | 0.547 | 0.335 | 0.465 | 0.627 | 0.261 | 0.194 | 0.441 | 0.445 | 0.705 | 0.89 | 0.487 | 0.146 | 0.715 | 0.886 | 0.237 | 0.599 | 0.428 | 0.531 |
| CC(=O)Nc1cccc(-n2c(=O)n(C3CC3)c(=O)c3c(Nc4ccc(I)cc4F)n(C)c(=O)c(C)c32)c1 [Trametinib] + Cc1nc(-c2cn3c(n2)-c2ccc(-c4cnn(C(C)(C)C(N)=O)c4)cc2OCC3)n(C(C)C)n1 [Taselisib] (first compound max 1 µM, 7x7, partner max 10 µM) | 0.774 | 0.681 | 0.987 | 0.362 | 0.987 | 1 | 0.993 | 0.895 | 0.799 | 0.271 | 0.822 | 1 | 0.688 | 0.594 | 0.956 | 0.999 | 0.797 | 0.596 | 0.653 | 0.75 |
